Assay results published in patent US20260184710A1, “CASITAS B-LINEAGE LYMPHOMA PROTOONCOGENE B (CBL-B) DEGRADING COMPOUNDS AND ASSOCIATED METHODS OF USE” (Arvinas Operations, Inc., priority 2022, published 2026).

Target: T1, Cbl-b (Homo sapiens, UniProt Q13191)
T1 construct: Cbl-b-HiBit KI Jurkat Cells were purchased from Promega; host or cells: Cbl-b-HiBiT knock-in Jurkat cells
Assay: Cbl-b Degradation Method B (Nano-Glo HiBiT lytic detection)
Format: cell-based
Conditions: Cbl-b-HiBit KI Jurkat Cells, incubated at least 6-24 hours; for DC50: half maximal degradation, read-out: Cbl-b Degredation Method B IC50; for Dmax: maximum degradation observed, read-out: Cbl-b Degredation Method B Dmax (%)
Method: Cbl-b Degradation Method B [table] Cbl-b-HiBit KI Jurkat Cells were purchased from Promega, and cell media consisted of RPMI 1640 with 10% […] and 1% pen/strep. The cells were counted, measured for viability, and 35 μL of the cell solution was seeded into 384 well flat bottom plates at a ratio of 20,000 cells per 35 μL. After which, the plates were incubated for ˜24 hours at 37° C. and 5% CO2. Compounds were ordered from Evotec in a 384 well plate at a 1 mM top concentration in DMSO and serially diluted 1:3 in DMSO for an 11-point dose response. Using the Bravo instrument, 1 uL of compound solution or DMSO was transferred to 125 uL of media. Each well was treated with 5 μL of compound plus media mixture or DMO and subsequently incubated for at least 6-24 hours at 37° C. and 5% CO2. After incubation, 30 μL of either NanoGlo media was added to each cell, and the plates read on the Synergy Neo2 machine. The concentration of an exemplary compound that leads to half maximal degradation (DC50) as well as the maximum degradation observed (Dmax, conventionally expressed as a percentage of control) is shown below in Table 2.

T1 sequence (Q13191 whole entry): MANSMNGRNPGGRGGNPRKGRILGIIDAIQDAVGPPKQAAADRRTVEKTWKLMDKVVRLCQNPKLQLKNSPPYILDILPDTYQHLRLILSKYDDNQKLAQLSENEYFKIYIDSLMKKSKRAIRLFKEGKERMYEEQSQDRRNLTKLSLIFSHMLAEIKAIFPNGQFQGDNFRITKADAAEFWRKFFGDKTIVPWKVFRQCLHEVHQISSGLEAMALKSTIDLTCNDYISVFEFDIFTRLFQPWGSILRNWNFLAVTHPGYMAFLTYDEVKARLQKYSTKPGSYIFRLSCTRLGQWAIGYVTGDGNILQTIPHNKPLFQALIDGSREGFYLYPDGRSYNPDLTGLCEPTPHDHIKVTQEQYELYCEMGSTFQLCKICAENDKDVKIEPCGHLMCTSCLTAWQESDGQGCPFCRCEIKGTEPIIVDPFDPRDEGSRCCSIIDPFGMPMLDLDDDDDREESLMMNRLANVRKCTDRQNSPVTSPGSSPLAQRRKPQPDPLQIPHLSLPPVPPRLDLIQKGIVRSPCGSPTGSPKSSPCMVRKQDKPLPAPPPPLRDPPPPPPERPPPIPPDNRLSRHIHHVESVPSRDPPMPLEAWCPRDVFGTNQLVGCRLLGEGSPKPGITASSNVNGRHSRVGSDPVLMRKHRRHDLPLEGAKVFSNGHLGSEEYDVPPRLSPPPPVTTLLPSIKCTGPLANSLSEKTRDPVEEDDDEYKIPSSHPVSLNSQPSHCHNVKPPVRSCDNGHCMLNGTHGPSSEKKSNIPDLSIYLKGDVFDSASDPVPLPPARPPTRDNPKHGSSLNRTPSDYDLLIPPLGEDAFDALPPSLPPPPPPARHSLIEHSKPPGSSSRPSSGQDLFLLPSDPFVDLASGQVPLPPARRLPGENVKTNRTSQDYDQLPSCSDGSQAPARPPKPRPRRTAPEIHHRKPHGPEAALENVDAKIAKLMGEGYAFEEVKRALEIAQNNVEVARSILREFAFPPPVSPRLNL

SMILES | DC50 [nM] | Dmax [%]
C[C@@H]1C[C@H](CN2CCC(CN3CCC(CN4CCN(c5ccc6c(c5)C(=O)N(C5CCC(=O)NC5=O)C6=O)CC4)CC3)CC2)CN(c2cc3c(c(C(F)(F)F)c2)CN(c2cccc(C4(Cc5nncn5C)COC4)c2)C3=O)C1 (stereo partly drawn) [Example 73, 2-(2,6-dioxopiperidin-3-yl)-5-[4-({1-[(1-{[(3R,5R)-5-methyl-1-[2-(3-{3-[(4-methyl-4H-1,2,4-triazol-3-yl)methyl]oxetan-3-yl}phenyl)-3-oxo-7-(trifluoromethyl)-2,3-dihydro-1H-isoindol-5-yl]piperidin-3-yl]methyl}piperidin-4-yl)methyl]piperidin-4-yl}methyl)piperazin-1-yl]-2,3-dihydro-1H-isoindole-1,3-dione] | 5 to 50 | 35 to 70
CC1c2nc(N3CCC(OC4CCC(CN5CC6CCC(C5)N6c5cc6c(c(C(F)(F)F)c5)CN(c5cccc(C7(Cc8nncn8C)CC(C#N)C7)c5)C6=O)CC4)CC3)ccc2C(=O)N1C1CCC(=O)NC1=O (centres unmarked) [Example 183, (1r,3r)-3-[(4-methyl-4H-1,2,4-triazol-3-yl)methyl]-3-{3-[1-oxo-6-(3-{[(1r,4r)-4-({1-[6-(2,6-dioxopiperidin-3-yl)-7-methyl-5-oxo-5H,6H,7H-pyrrolo[3,4-b]pyridin-2-yl]piperidin-4-yl}oxy)cyclohexyl]methyl}-3,8-diazabicyclo[3.2.1]octan-8-yl)-4-(trifluoromethyl)-2,3-dihydro-1H-isoindol-2-yl]phenyl}cyclobutane-1-carbonitrile] | 5 to 50 | < 35
Cn1cnnc1CC1(c2cccc(N3Cc4c(cc(CN5CCC(COCC6CCN(c7ccc8c(c7)C(=O)N(C7CCC(=O)NC7=O)C8=O)CC6)CC5)cc4C(F)(F)F)C3=O)c2)COC1 (centres unmarked) [Example 40, 2-(2,6-dioxopiperidin-3-yl)-5-(4-{[(1-{[2-(3-{3-[(4-methyl-4H-1,2,4-triazol-3-yl)methyl]oxetan-3-yl}phenyl)-3-oxo-7-(trifluoromethyl)-2,3-dihydro-1H-isoindol-5-yl]methyl}piperidin-4-yl)methoxy]methyl}piperidin-1-yl)-2,3-dihydro-1H-isoindole-1,3-dione] | > 500 | 
Cn1cnnc1CC1(c2cccc(N3Cc4c(cc(CN5CC(C6CN(c7ccc8c(c7)C(=O)N(C7CCC(=O)NC7=O)C8=O)C6)C5)cc4C(F)(F)F)C3=O)c2)COC1 (centres unmarked) [Example 48, 2-(2,6-dioxopiperidin-3-yl)-5-(1′-{[2-(3-{3-[(4-methyl-4H-1,2,4-triazol-3-yl)methyl]oxetan-3-yl}phenyl)-3-oxo-7-(trifluoromethyl)-2,3-dihydro-1H-isoindol-5-yl]methyl}-[3,3′-biazetidin]-1-yl)-2,3-dihydro-1H-isoindole-1,3-dione] | 50 to 500 | 35 to 70
Cn1cnnc1C[C@]1(c2cccc(N3Cc4c(cc(CN5CCC[C@H](CN6CCN(C[C@H]7CC[C@H](OC8CCN(c9ccc%10c(c9F)CN(C9CCC(=O)NC9=O)C%10=O)CC8)CC7)CC6)C5)cc4C(F)(F)F)C3=O)c2)C[C@@H](C#N)C1 (stereo partly drawn) [Example 168, (1r,3r)-3-[(4-methyl-4H-1,2,4-triazol-3-yl)methyl]-3-[3-(1-oxo-6-{[(3S)-3-[(4-{[(1r,4r)-4-({1-[2-(2,6-dioxopiperidin-3-yl)-4-fluoro-1-oxo-2,3-dihydro-1H-isoindol-5-yl]piperidin-4-yl}oxy)cyclohexyl]methyl}piperazin-1-yl)methyl]piperidin-1-yl]methyl}-4-(trifluoromethyl)-2,3-dihydro-1H-isoindol-2-yl)phenyl]cyclobutane-1-carbonitrile] | < 5 | 35 to 70

Second part, the compound after the results:

DC50 [nM] | Dmax [%] | SMILES
> 500 |  | Cc1cc(N2CCC(CN3CCC4(CC3)CN(c3cc(C(F)(F)F)c5cn(-c6cccc([C@]7(Cc8nncn8C)C[C@@H](C#N)C7)c6)nc5c3)C4)CC2)c(F)c2c1C(=O)N(C1CCC(=O)NC1=O)C2 (some centres unmarked) [Example 154, 3-[3-[6-[7-[[1-[2-(2,6-dioxo-3-piperidyl)-4-fluoro-7-methyl-1-oxo-isoindolin-5-yl]-4-piperidyl]methyl]-2,7-diazaspiro[3.5]nonan-2-yl]-4-(trifluoromethyl)indazol-2-yl]phenyl]-3-[(4-methyl-1,2,4-triazol-3-yl)methyl]cyclobutanecarbonitrile]
> 500 |  | Cn1cnnc1CC1(c2cccc(-n3cc4c(C(F)(F)F)cc(CN5CCC[C@H](CN6CCN(CC7CCN(c8ccc9c(c8F)CN(C8CCC(=O)NC8=O)C9=O)CC7)CC6(C)C)C5)cc4n3)c2)COC1 (stereo partly drawn) [Example 285, 3-(5-{4-[(3,3-dimethyl-4-{[(3S)-1-{[2-(3-{3-[(4-methyl-4H-1,2,4-triazol-3-yl)methyl]oxetan-3-yl}phenyl)-4-(trifluoromethyl)-2H-indazol-6-yl]methyl}piperidin-3-yl]methyl}piperazin-1-yl)methyl]piperidin-1-yl}-4-fluoro-1-oxo-2,3-dihydro-1H-isoindol-2-yl)piperidine-2,6-dione]
> 500 |  | CC1c2nc(N3CCC(CN4CCN(CC5CCN(Cc6cc7c(c(C(F)(F)F)c6)CN(c6cccc([C@]8(Cc9nncn9C)C[C@@H](C#N)C8)c6)C7=O)CC5)C(C)(C)C4)CC3)ccc2C(=O)N1C1CCC(=O)NC1=O (some centres unmarked) [Example 287, (1r,3r)-3-(3-{6-[(4-{[4-({1-[6-(2,6-dioxopiperidin-3-yl)-7-methyl-5-oxo-5H,6H,7H-pyrrolo[3,4-b]pyridin-2-yl]piperidin-4-yl}methyl)-2,2-dimethylpiperazin-1-yl]methyl}piperidin-1-yl)methyl]-1-oxo-4-(trifluoromethyl)-2,3-dihydro-1H-isoindol-2-yl}phenyl)-3-[(4-methyl-4H-1,2,4-triazol-3-yl)methyl]cyclobutane-1-carbonitrile]
5 to 50 | < 35 | Cn1cnnc1C[C@]1(c2cccc(-n3cc4c(C(F)(F)F)cc(N5CC6(CCN(CC7CCN(c8ccc9c(c8Cl)CN(C8CCC(=O)NC8=O)C9=O)CC7)CC6)C5)cc4n3)c2)C[C@H](C#N)C1 (some centres unmarked) [Example 262, (1r,3r)-3-(3-{6-[7-({1-[4-chloro-2-(2,6-dioxopiperidin-3-yl)-1-oxo-2,3-dihydro-1H-isoindol-5-yl]piperidin-4-yl}methyl)-2,7-diazaspiro[3.5]nonan-2-yl]-4-(trifluoromethyl)-2H-indazol-2-yl}phenyl)-3-[(4-methyl-4H-1,2,4-triazol-3-yl)methyl]cyclobutane-1-carbonitrile]
> 500 |  | Cn1cnnc1CC1(c2cccc(-n3cc4c(C(F)(F)F)cc(CN5CCC[C@@H](CN6CCC(CN7CCN(c8ccc9c(c8F)CN(C8CCC(=O)NC8=O)C9=O)CC7)CC6)C5)cc4n3)c2)COC1 (stereo partly drawn) [Example 298, 3-(4-fluoro-5-{4-[(1-{[(3S)-1-{[2-(3-{3-[(4-methyl-4H-1,2,4-triazol-3-yl)methyl]oxetan-3-yl}phenyl)-4-(trifluoromethyl)-2H-indazol-6-yl]methyl}piperidin-3-yl]methyl}piperidin-4-yl)methyl]piperazin-1-yl}-1-oxo-2,3-dihydro-1H-isoindol-2-yl)piperidine-2,6-dione]
< 5 | < 35 | CC1c2nc(N3CCC(O[C@H]4CC[C@H](CN5CCCN(c6cc7c(c(C(F)(F)F)c6)CN(c6cccc([C@]8(Cc9nncn9C)C[C@@H](C#N)C8)c6)C7=O)CC5)CC4)CC3)ccc2C(=O)N1C1CCC(=O)NC1=O (some centres unmarked) [Example 180, (1r,3r)-3-[(4-methyl-4H-1,2,4-triazol-3-yl)methyl]-3-{3-[1-oxo-6-(4-{[(1r,4r)-4-({1-[6-(2,6-dioxopiperidin-3-yl)-7-methyl-5-oxo-5H,6H,7H-pyrrolo[3,4-b]pyridin-2-yl]piperidin-4-yl}oxy)cyclohexyl]methyl}-1,4-diazepan-1-yl)-4-(trifluoromethyl)-2,3-dihydro-1H-isoindol-2-yl]phenyl}cyclobutane-1-carbonitrile]
< 5 | > 70 | Cc1cc(N2CCC(O[C@H]3CC[C@H](CN4CCN(Cc5cc6c(c(C(F)(F)F)c5)CN(c5cccc(C7(Cc8nncn8C)CC7)c5)C6=O)C(C)(C)C4)CC3)CC2)c(F)c2c1C(=O)N(C1CCC(=O)NC1=O)C2 (some centres unmarked) [Example 227, 3-[4-fluoro-7-methyl-1-oxo-5-(4-{[(1r,4r)-4-[(3,3-dimethyl-4-{[2-(3-{1-[(4-methyl-4H-1,2,4-triazol-3-yl)methyl]cyclopropyl}phenyl)-3-oxo-7-(trifluoromethyl)-2,3-dihydro-1H-isoindol-5-yl]methyl}piperazin-1-yl)methyl]cyclohexyl]oxy}piperidin-1-yl)-2,3-dihydro-1H-isoindol-2-yl]piperidine-2,6-dione]
> 500 |  | CC1c2nc(N3CCC(O[C@H]4CC[C@H](CN5CCN(Cc6cc(C(F)(F)F)c7cn(-c8cccc(C9(Cc%10nncn%10C)CC9)c8)nc7c6)C(C)(C)C5)CC4)CC3)ccc2C(=O)N1C1CCC(=O)NC1=O (relative stereo) [Example 253, rel-3-[7-methyl-5-oxo-2-(4-{[(1r,4r)-4-[(3,3-dimethyl-4-{[2-(3-{1-[(4-methyl-4H-1,2,4-triazol-3-yl)methyl]cyclopropyl}phenyl)-4-(trifluoromethyl)-2H-indazol-6-yl]methyl}piperazin-1-yl)methyl]cyclohexyl]oxy}piperidin-1-yl)-5H,6H,7H-pyrrolo[3,4-b]pyridin-6-yl]piperidine-2,6-dione]
